In ChEMBL document CHEMBL1201862, “PubChem BioAssay data set” (2004):
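Each compound was tested at five concentrations against cells in 96-well plates for 48 hours. GI50 is the concentration that inhibits growth by half.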 Activity calls are given as the source filed them. Cut-off read from the data, not from the text of the source: active = GI50 up to about 1.1 µM and inactive = higher. Where a SMILES comes first, the peptide text is derived from it. [ ]: non-standard residue; d: D form. The star is where a group is joined. Hyp = O=C(O)[CH]1C[CH](O)CN1; Cbz = O=C(OCc1ccccc1)*

Tests used:
Experiment in all cases: inhibition of tumour cell growth, NCI panel, 48 h
KM12 = system: KM12
OVCAR-4 = system: OVCAR-4
HCC 2998 = system: HCC 2998
HCT-15 = system: HCT-15
EKVX = system: EKVX
MOLT-4 = system: MOLT-4
SNB-19 = system: SNB-19
MDA-MB-435 = system: MDA-MB-435
786-0 = system: 786-0
COLO 205 = system: COLO 205
TK-10 = system: TK-10
NCI-H226 = system: NCI-H226
PC-3 = system: PC-3
DU-145 = system: DU-145
RPMI-8226 = system: RPMI-8226
SF-295 = system: SF-295
SK-OV-3 = system: SK-OV-3
UACC-62 = system: UACC-62
NCI-H522 = system: NCI-H522
HOP-92 = system: HOP-92

Structure (SMILES) | GI50 (KM12) | GI50 (OVCAR-4) | GI50 (HCC 2998) | GI50 (HCT-15) [µM] | GI50 (EKVX) | GI50 (MOLT-4) | GI50 (SNB-19) | GI50 (MDA-MB-435) | GI50 (786-0) | GI50 (COLO 205) | GI50 (TK-10) | GI50 (NCI-H226) | GI50 (PC-3) | GI50 (DU-145) | GI50 (RPMI-8226) | GI50 (SF-295) | GI50 (SK-OV-3) | GI50 (UACC-62) | GI50 (NCI-H522) | GI50 (HOP-92)
CC1(c2ccccc2)CCN(C2CC2)CO1 (stereo not given) | 14.9 µM (inactive) | 18.8 µM (inactive) | 17.1 µM (inactive) | 16.5 | 20.1 µM (inactive) | 18.3 µM (inactive) | > 100 µM (inactive) | 49.9 µM (inactive) | 11.4 µM (inactive) | 21.6 µM (inactive) | 13.8 µM (inactive) | > 100 µM (inactive) | > 100 µM (inactive) | 29.6 µM (inactive) | 19.8 µM (inactive) | > 100 µM (inactive) | > 100 µM (inactive) | 18.1 µM (inactive) | – | –
Cc1ccccc1NC(=N)Nc1ccccc1C | > 100 µM (inactive) | > 100 µM (inactive) | 21.9 µM (inactive) | > 100 | > 100 µM (inactive) | > 100 µM (inactive) | > 100 µM (inactive) | > 100 µM (inactive) | > 100 µM (inactive) | > 100 µM (inactive) | > 100 µM (inactive) | > 100 µM (inactive) | > 100 µM (inactive) | > 100 µM (inactive) | > 100 µM (inactive) | > 100 µM (inactive) | > 100 µM (inactive) | > 100 µM (inactive) | > 100 µM (inactive) | –
CN(C1=NCCO1)c1cccc2c1CCCC2 | 6.97 µM (inactive) | 3.05 µM (inactive) | 3.79 µM (inactive) | 3.48 | 8.55 µM (inactive) | 1.77 µM (inactive) | 8.04 µM (inactive) | 3.64 µM (inactive) | 3.17 µM (inactive) | 1.89 µM (inactive) | 3.23 µM (inactive) | 1.44 µM (inactive) | 2.25 µM (inactive) | 9.55 µM (inactive) | 5.93 µM (inactive) | 4.35 µM (inactive) | 4.71 µM (inactive) | 3.37 µM (inactive) | 4.16 µM (inactive) | –
Cc1cnc(Cl)nc1C(C#N)c1nc2ccccc2s1 (stereo not given) | 33.8 µM (inactive) | 22.8 µM (inactive) | – | 16.6 | 32.8 µM (inactive) | 63.5 µM (inactive) | 34.2 µM (inactive) | 22.5 µM (inactive) | 15.7 µM (inactive) | 14.2 µM (inactive) | 24.8 µM (inactive) | 14.7 µM (inactive) | – | 31.8 µM (inactive) | 12.6 µM (inactive) | 19.8 µM (inactive) | 18 µM (inactive) | – | 2.84 µM (inactive) | 7.33 µM (inactive)
Nc1c(C(=O)O)c2ccc([N+](=O)[O-])cc2c(=O)n1-c1nc2ccccc2s1 | > 100 µM (inactive) | > 100 µM (inactive) | > 100 µM (inactive) | > 100 | > 100 µM (inactive) | > 100 µM (inactive) | > 100 µM (inactive) | > 100 µM (inactive) | > 100 µM (inactive) | > 100 µM (inactive) | – | > 100 µM (inactive) | > 100 µM (inactive) | > 100 µM (inactive) | > 100 µM (inactive) | > 100 µM (inactive) | > 100 µM (inactive) | > 100 µM (inactive) | > 100 µM (inactive) | –
NC(=O)CNC(=O)C1CC(O)CN1C(=O)C1CCCN1C(=O)OCc1ccccc1 (stereo not drawn) (Cbz-Pro-[Hyp]-Gly-NH2; configuration not given here) | > 100 µM (inactive) | > 100 µM (inactive) | > 100 µM (inactive) | > 100 | > 100 µM (inactive) | > 100 µM (inactive) | > 100 µM (inactive) | > 100 µM (inactive) | > 100 µM (inactive) | > 100 µM (inactive) | > 100 µM (inactive) | > 100 µM (inactive) | > 100 µM (inactive) | > 100 µM (inactive) | > 100 µM (inactive) | > 100 µM (inactive) | > 100 µM (inactive) | > 100 µM (inactive) | > 100 µM (inactive) | –
O=[N+]([O-])/C(C(Cl)=C(Cl)Cl)=C(\Nc1cccc2ccccc12)Sc1ccccc1 | 13.2 µM (inactive) | 10.4 µM (inactive) | 17.8 µM (inactive) | 15.7 | 11.4 µM (inactive) | > 100 µM (inactive) | 18.8 µM (inactive) | 13.8 µM (inactive) | 18.4 µM (inactive) | 15.1 µM (inactive) | – | 16.1 µM (inactive) | 13.5 µM (inactive) | 13.2 µM (inactive) | 6.89 µM (inactive) | 15.2 µM (inactive) | 26.1 µM (inactive) | 10.8 µM (inactive) | – | –
COC(=O)[C@@H]1C[C@H]2OC(=O)CC[C@]2(C)O[C@H]1[C@H]1O[C@@](C)(O)CCC[C@H]1C | > 50 µM (inactive) | > 50 µM (inactive) | > 50 µM (inactive) | > 50 | > 50 µM (inactive) | > 50 µM (inactive) | > 50 µM (inactive) | > 50 µM (inactive) | > 50 µM (inactive) | > 50 µM (inactive) | > 50 µM (inactive) | > 50 µM (inactive) | > 50 µM (inactive) | > 50 µM (inactive) | > 50 µM (inactive) | > 50 µM (inactive) | > 50 µM (inactive) | > 50 µM (inactive) | 28.6 µM (inactive) | –
CN(C)/C(N)=N\C#N | > 100 µM (inactive) | > 100 µM (inactive) | > 100 µM (inactive) | 18.9 | > 100 µM (inactive) | > 100 µM (inactive) | > 100 µM (inactive) | – | > 100 µM (inactive) | 59.4 µM (inactive) | > 100 µM (inactive) | > 100 µM (inactive) | – | – | 64.7 µM (inactive) | > 100 µM (inactive) | > 100 µM (inactive) | > 100 µM (inactive) | > 100 µM (inactive) | > 100 µM (inactive)
O=[N+]([O-])c1ccc(Cl)cc1N/N=C/c1ccnc2ccccc12 | > 100 µM (inactive) | > 100 µM (inactive) | > 100 µM (inactive) | > 100 | 22.8 µM (inactive) | > 100 µM (inactive) | > 100 µM (inactive) | 97.3 µM (inactive) | > 100 µM (inactive) | > 100 µM (inactive) | > 100 µM (inactive) | > 100 µM (inactive) | > 100 µM (inactive) | > 100 µM (inactive) | > 100 µM (inactive) | > 100 µM (inactive) | > 100 µM (inactive) | > 100 µM (inactive) | > 100 µM (inactive) | –
COc1ccc2cc(C(=O)O)ccc2c1OC | > 100 µM (inactive) | – | > 100 µM (inactive) | > 100 | – | > 100 µM (inactive) | > 100 µM (inactive) | > 100 µM (inactive) | > 100 µM (inactive) | > 100 µM (inactive) | – | > 100 µM (inactive) | > 100 µM (inactive) | 69.5 µM (inactive) | – | > 100 µM (inactive) | > 100 µM (inactive) | > 100 µM (inactive) | > 100 µM (inactive) | –
CCOc1ccc(NCc2cc(OC)c(OC)c(OC)c2)cc1 | 0.276 µM (active) | 41.6 µM (inactive) | 0.771 µM (active) | 0.335 | 34.9 µM (inactive) | 0.582 µM (active) | 1.95 µM (inactive) | – | 0.723 µM (active) | 0.384 µM (active) | – | 10.3 µM (inactive) | 1.5 µM (inactive) | 2.57 µM (inactive) | 0.944 µM (active) | 0.306 µM (active) | 0.706 µM (active) | 0.423 µM (active) | 0.333 µM (active) | 5.43 µM (inactive)
O=c1[nH]nc(-c2ccccc2)n1-n1cccc1 | > 100 µM (inactive) | > 100 µM (inactive) | > 100 µM (inactive) | > 100 | > 100 µM (inactive) | 35.6 µM (inactive) | > 100 µM (inactive) | > 100 µM (inactive) | > 100 µM (inactive) | > 100 µM (inactive) | > 100 µM (inactive) | > 100 µM (inactive) | > 100 µM (inactive) | > 100 µM (inactive) | > 100 µM (inactive) | > 100 µM (inactive) | > 100 µM (inactive) | > 100 µM (inactive) | > 100 µM (inactive) | –
CCOP1(=O)C=CC(Cl)=C(C)C1 (stereo not given) | 18.3 µM (inactive) | 16.4 µM (inactive) | 15.9 µM (inactive) | 13.7 | 26.4 µM (inactive) | 3.64 µM (inactive) | 67.5 µM (inactive) | – | 15.6 µM (inactive) | 19.1 µM (inactive) | 19.5 µM (inactive) | > 100 µM (inactive) | – | – | 6.82 µM (inactive) | 35.2 µM (inactive) | 48 µM (inactive) | 15 µM (inactive) | 4.04 µM (inactive) | 16.9 µM (inactive)
CC(C)CC(NC(=O)c1cccc(O)c1O)C(=O)NCc1cc(CNC(=O)C(CC(C)C)NC(=O)c2cccc(O)c2O)cc(CNC(=O)C(CC(C)C)NC(=O)c2cccc(O)c2O)c1 (stereo not given) | 13.8 µM (inactive) | 13.9 µM (inactive) | 7.8 µM (inactive) | 23.1 | 12.6 µM (inactive) | 11.4 µM (inactive) | 13.6 µM (inactive) | – | 42 µM (inactive) | 16.6 µM (inactive) | 16.2 µM (inactive) | 14.7 µM (inactive) | – | – | 4.14 µM (inactive) | 15.5 µM (inactive) | 9.44 µM (inactive) | 4.49 µM (inactive) | 3.92 µM (inactive) | 14.6 µM (inactive)
Cc1ccc(S(=O)(=O)Nc2cccc3c(=O)nc[nH]c23)cc1 | > 100 µM (inactive) | > 100 µM (inactive) | > 82 µM (inactive) | 61.5 | > 100 µM (inactive) | 34.3 µM (inactive) | > 100 µM (inactive) | – | > 100 µM (inactive) | > 100 µM (inactive) | > 100 µM (inactive) | > 94.6 µM (inactive) | – | – | 17.8 µM (inactive) | 82.6 µM (inactive) | > 100 µM (inactive) | > 87.1 µM (inactive) | 76.6 µM (inactive) | > 39.6 µM (inactive)
